“Also recorded” adds a separate entry of the source. Residues, ends and D or L forms follow the SMILES beside them. No end group written: not given here. *: point of attachment. Biotin = O=C1N[C@H]2[C@H](CS[C@H]2CCCCC(=O)*)N1
How the values were obtained:
integrin α5β1 [1] = biological target: T1, integrin α5β1 (Homo sapiens, UniProt P05556+P08648); assay: Competitive ELISA, B-Vi45-51 binding to immobilized integrin α5β1; settings: excess competitor
T1 construct: purchased Bio-Techne
Procedure: (§1) Vi ([49]) and its mutants were produced as reported ([14]). HUVECs were cultured as reported ([14], [50]).
(§2) Plates coated with 2 μg mL^−1 integrin α5β1, PAI-1, or PAI-1-uPA complex (37 °C, 10 min) were incubated with B-Vi45-51, Vi, or 100 nM ViH46A, ViR48A, or ViH46A/R48A. Competition used excess Src, alanine mutants, or THGR peptides. Detection used horseradish peroxidase antibodies and 3,3′,5,5′-tetramethylbenzidine.

integrin α5β1 [2] = biological target: T1, integrin α5β1; assay: Competitive ELISA, Vi binding to integrin α5β1; settings: excess competitor
Procedure: as §1, §2

endothelial cells [3] = settings: cited from earlier work
endothelial cells [4] = settings: cited from earlier work; remark: listed apart in the source
[5] = system: HUVEC adhesion to fibronectin; assay: HUVEC adhesion to fibronectin; format: cell-based, human; settings: 1 h
Procedure: HUVECs (43,000 cells cm^−2) were added and incubated at 37 °C for 1 h. Cells were washed twice and quantified by 3-(4,5-dimethylthiazol-2-yl)-2,5-diphenyltetrazolium bromide.

PAI-1 [6] = biological target: T2, PAI-1 (Homo sapiens, UniProt P05121); settings: cited from earlier work
Excerpt: We recently identified two distinct functional motifs in the Vi molecule: the HGR and the HNLSSEM motifs. […] These discrep ...

HUVECs [7] = assay: Matrigel invasion; format: cell-based, human; settings: 100 nM Vi or Vi45-51, 16 h; shITGA5 HUVEC vs WT
Procedure: As reported ([14]), HUVECs on Matrigel-coated Transwells were treated with 100 nM of Vi45-51 or Vi. After 16 h, invading cells were counted.

PAI-1 knockout mice = settings: cited from earlier work
Excerpt: The HGR motif is the sole antiangiogenic determinant of Vi, as its mutation leads to the loss of Vi’s antiangiogenic function ([14]). Given that Vi binds to integrin α5β1 via its HGR motif and that knockdown of ITGA5 abolishes the effects of Vi on endothelial cell proliferation, invasion, vascular permeability, and tube formation in vitro, while an antibody against integrin α5β1 suppresses the antiangiogenic effect of Vi in the in vivo Matrigel plug assay, integrin α5β1 emerges as the binding partner mediating the antiangiogenic activity of Vi. Integrin α5β1 is critical for angiogenesis ([16]) ...

HUVECs [8] = assay: Tube formation on Matrigel; format: cell-based, human; settings: 100 nM Vi or Vi45-51, 6 h; shITGA5 HUVEC vs WT
Procedure: HUVEC tubular network formation was evaluated as reported ([14], [51]). HUVECs were seeded on Matrigel and treated with 100 nM Vi or Vi45-51 for 6 h. Micrographs were analyzed by Angiogenesis Analyzer ([52]).

HUVECs [9] = assay: Endothelial cell proliferation (EdU); format: cell-based, human; settings: 24 h; for Effect of ITGA5 knockdown on inhibition of endothelial proliferation: 100 nM Vi or Vi45-51, bFGF + VEGF, shITGA5 HUVEC vs WT; for Effect of anti-α5β1 antibody on inhibition of VEGF + bFGF-induced proliferation: 100 nM Vi or Vi45-51, 20 μg mL^−1 anti-α5β1
Procedure: As reported ([14]), HUVECs were serum-starved for 8 h and treated with 100 nM Vi45-51 or Vi, bFGF + VEGF, and 20 μg mL^−1 anti-α5β1 antibody in 20% fetal bovine serum for 24 h. EdU incorporation was detected with Azide Fluor 545 (Sigma).

integrin α5β1 [10] = biological target: T1, integrin α5β1; assay: ELISA, binding to immobilized integrin α5β1; settings: dose-dependent, plates coated with 2 μg mL^−1
Procedure: as §1, §2

HUVECs [11] = assay: Apoptosis (Cell Death Detection ELISA); format: cell-based, human; settings: 100 nM Vi, 24 h; shITGA5 HUVEC vs WT
Procedure: As reported ([13]), HUVEC were treated with 100 nM Vi or Vi45-51 for 24 h, and apoptosis was analyzed using the Cell Death Detection ELISA kit (Roche).

[12] = system: Matrigel plug vascularization (Pecam1); assay: Matrigel plug assay; format: in vivo, male C57BL/6 mice; settings: mice, s.c. plugs, 100 nM Vi or Vi45-51, bFGF + VEGF, 20 μg mL^−1 anti-α5β1; 7 days; Pecam1 mRNA
Procedure: As previously described ([14], [53], [54]), 6-week-old male C57BL/6 mice were subcutaneously injected with two 0.5 ml plugs supplemented with 300 ng mL^−1 bFGF and 100 ng mL^−1 VEGF, 100 nM Vi or Vi45-51, and 20 μg mL^−1 anti-integrin α5β1 antibody. After 7 days, plugs were collected, and Pecam1, relative to GAPDH, was quantified by quantitative PCR as reported ([14]). Procedures followed institutional ethical approval (Bioethics Committee, Instituto de Neurobiología, UNAM) and were in accordance with the Guide for the Care and Use of Laboratory Animals (http://www.ncbi.nlm.nih.gov/books/NBK54050/).

HUVEC monolayers = assay: Endothelial permeability (TEER); format: cell-based, human; settings: 100 nM Vi or Vi45-51 for 1 h, then 50 ng mL^−1 VEGF; TEER 120 min; n = 6
Procedure: HUVECs were grown to confluency on 0.4 μm pore Transwells, treated with 100 nM Vi45-51 or Vi for 1 h, then stimulated with 50 ng mL^−1 VEGF. Transendothelial electrical resistance was recorded for 120 min using the EVOM2 meter (World Precision Instruments).

PAI-1-uPA complex = PAI-1-uPA complex (Homo sapiens, UniProt P00749+P05121); assay: ELISA, binding to immobilized PAI-1-uPA complex; settings: for Binding to immobilized PAI-1-uPA complex: plates coated with 2 μg mL^−1
Procedure: as §2

PAI-1 [13] = biological target: T2, PAI-1; assay: ELISA, binding to immobilized PAI-1
Procedure: as §2

integrin α5 = assay: Pull-down and Western blot, integrin α5; format: binding, human (HUVEC lysates)
Procedure: (§3) To test whether Vi’s HGR motif binds integrin α5β1, human umbilical vein endothelial cells (HUVECs) were treated with a biotinylated peptide comprising residues 45 to 51 (B-Vi45-51) and subjected to pull-down and Western blot.
(§4) HUVECs treated with 500 nM B-Vi45-51, 20 ng mL^−1 bFGF, and 25 ng mL^−1 VEGF for 1 h were lysated in radioimmunoprecipitation assay, sonicated, incubated 30 min at 37 °C, and pulled down with Dynabeads Streptavidin T1 (Thermo). Eluates were analyzed by a Western blot for integrin α5, PAI-1, and uPAR.

PAI-1 [14] = assay: Pull-down and Western blot, PAI-1; format: binding, human (HUVEC lysates); settings: HUVEC lysates; 500 nM B-Vi45-51, 1 h; Western blot
Procedure: as §3, §4

uPAR = assay: Pull-down and Western blot, uPAR; format: binding, human (HUVEC lysates); settings: HUVEC lysates; 500 nM B-Vi45-51, 1 h; Western blot
Procedure: as §3, §4

With “H46A: alanine-scanning mutant peptide, alanine substitution at H46 (TAGRGFI)” as the compound, how does the “Inhibition of B-Vi45-51 binding to integrin α5β1” value (integrin α5β1 [1]) read?
The value was “abolished inhibition”.

With THGR [HGR-containing tetrapeptide THGR] as the compound, how does the “Inhibition of Vi binding to integrin α5β1” value (integrin α5β1 [2]) read?
The value was “blocked Vi–integrin interaction”.

For cilengitide [reference compound], which “Induction of apoptosis (anoikis)” value (endothelial cells [3]) is on record?
The value was “induce apoptosis through anoikis”.

And the “Disruption of endothelial adhesion” value (endothelial cells [4])?
The value was “disrupt endothelial adhesion”.

For “R48A: Vi45-51 mutated by alanine in R48 (THGAGFI)”, which “Inhibition of B-Vi45-51 binding to integrin α5β1” value (integrin α5β1 [1]) is on record?
The value was “abolished inhibition”.

And the “HUVEC adhesion to fibronectin, dose–response” value ([5]; fibronectin 1 μg cm^−2, 37 °C)?
The value was “did not”.

For HNLSSEM [HNLSSEM motif], which “Binding to PAI-1 (literature)” value (PAI-1 [6]) is on record?
Its value is “mediates Vi binding to PAI-1”.

What about the “Apoptosis induction via uPAR-dependent mechanism” value (endothelial cells [3]) of the same compound?
The value was “induces endothelial apoptosis through a uPAR-dependent mechanism”.

With “Ac-PHSCN-NH2 [ATN-161, PHSRN-based peptide (Ac-PHSCN-NH2), reference compound]” as the compound, how does the “Induction of apoptosis (anoikis)” value (endothelial cells [3]) read?
Its value is “induce apoptosis through anoikis”.

What about the “Disruption of endothelial adhesion” value (endothelial cells [4]) of the same compound?
Its value is “disrupt endothelial adhesion”.

With vasoinhibin [Vi] as the compound, how does the “Effect of ITGA5 knockdown on inhibition of invasion” value (HUVECs [7]) read?
The value was “abolished the inhibitory effects”.

And the “Antiangiogenic and antitumor effects in PAI-1 knockout mice” value (PAI-1 knockout mice)?
Its value is “lost in PAI-1 knockout mice”.

What about the “Effect of ITGA5 knockdown on inhibition of tube formation” value (HUVECs [8]) of the same compound?
Its value is “abolished the inhibitory effects”.

And the “Effect of ITGA5 knockdown on inhibition of endothelial proliferation” value (HUVECs [9])?
Its value is “abolished the inhibitory effects”.

And the “Effect of anti-α5β1 antibody on inhibition of VEGF + bFGF-induced proliferation” value (HUVECs [9])?
Its value is “prevented the inhibitory effects”.

What about the “Binding to immobilized integrin α5β1” value (integrin α5β1 [10]) of the same compound?
The value was “bound all three”.

What about the “Effect of ITGA5 knockdown on Vi-induced apoptosis” value (HUVECs [11]) of the same compound?
Its value is “did not abolish Vi-induced apoptosis; in fact, it was even slightly increased; also recorded: did not prevent, but slightly enhanced”.

And the “Effect of anti-α5β1 antibody on inhibition of Matrigel plug vascularization” value [12]?
The value was “prevented the inhibitory effects”.

What about the “Effect of ITGA5 silencing on inhibition of VEGF-induced permeability” value (HUVEC monolayers) of the same compound?
The value was “ablated the inhibitory effect”.

What about the Kd (PAI-1-uPA complex; immobilized PAI-1-uPA complex, at least three independent experiments) of the same compound?
Its Kd is 406 nM.

And the “Binding to immobilized PAI-1-uPA complex” value (PAI-1-uPA complex)?
Its value is “bound all three”.

What about the “Effect of antibodies against integrin α5β1 on Vi-induced endothelial cell apoptosis” value (endothelial cells [3]) of the same compound?
The value was “partially prevented”.

And the Kd (PAI-1 [13]; immobilized PAI-1, at least three independent experiments)?
Its Kd is 528 nM.

And the “Binding to immobilized PAI-1” value (PAI-1 [13]; plates coated with 2 μg mL^−1)?
Its value is “bound all three”.

For `CC[C@H](C)[C@H](NC(=O)[C@H](Cc1ccccc1)NC(=O)CNC(=O)[C@H](CCCNC(=N)N)NC(=O)CNC(=O)[C@H](Cc1c[nH]cn1)NC(=O)[C@@H](NC(=O)CCCC[C@@H]1SC[C@@H]2NC(=O)N[C@@H]21)[C@@H](C)O)C(=O)O` [B-Vi45-51] (Biotin-THGRGFI-OH; N-terminus and C-terminus assumed), which “Pull-down of integrin α5” value (integrin α5; HUVEC lysates, 500 nM B-Vi45-51, 1 h, Dynabeads Streptavidin T1, Western blot, ∼145 kDa) is on record?
Its value is “Integrin α5 was precipitated”.

And the “Effect of VEGF + bFGF on pull-down of integrin α5” value (integrin α5; HUVECs, 500 nM B-Vi45-51, 20 ng mL^−1 bFGF, 25 ng mL^−1 VEGF, 1 h)?
Its value is “did not affect binding”.

What about the “Pull-down of PAI-1” value (PAI-1 [14]) of the same compound?
The value was “failed to pull down”.

And the “Binding to immobilized integrin α5β1” value (integrin α5β1 [10])?
Its value is “dose-dependent binding”.

What about the “Binding to immobilized PAI-1-uPA complex” value (PAI-1-uPA complex) of the same compound?
Its value is “not to PAI-1 or the PAI-1-uPA complex”.

And the “Pull-down of uPAR” value (uPAR)?
The value was “failed to pull down”.

Which IC50 ([5]; dose–response, fibronectin 1 μg cm^−2, 37 °C, MTT read-out, nonlinear regression (r^2 > 0.8), at least three independent experiments, read-out: IC50, inhibition of HUVEC adhesion to fibronectin) does the source give for `N=C(N)NCCC[C@H](N)C(=O)NCC(=O)N[C@@H](CC(=O)O)C(=O)O` [RGD, reference compound] here?
The IC50 was 61.3 nM.

Which results are given for THGRGFI [Vi45-51]?
Effect of ITGA5 knockdown on inhibition of invasion (HUVECs [7]): abolished the inhibitory effects; Effect of ITGA5 knockdown on inhibition of tube formation (HUVECs [8]): abolished the inhibitory effects; Effect of ITGA5 knockdown on inhibition of endothelial proliferation (HUVECs [9]): abolished the inhibitory effects; Effect of anti-α5β1 antibody on inhibition of VEGF + bFGF-induced proliferation (HUVECs [9]): prevented the inhibitory effects; Inhibition of B-Vi45-51 binding to integrin α5β1 (integrin α5β1 [1]): inhibited B-Vi45-51 binding; Effect of anti-α5β1 antibody on inhibition of Matrigel plug vascularization [12]: prevented the inhibitory effects; Effect of ITGA5 silencing on inhibition of VEGF-induced permeability (HUVEC monolayers): ablated the inhibitory effect; HUVEC adhesion to fibronectin at 1 μM ([5]; 1 μM, fibronectin 1 μg cm^−2, 37 °C, Fig. 4C): enhanced fibronectin-mediated adhesion; EC50 [5]: 4.55 nM; HUVEC adhesion to fibronectin, dose–response ([5]; fibronectin 1 μg cm^−2, 37 °C): increased the adhesion in a dose-dependent manner

Source: publication PMC12795676, “Integrin α5β1 mediates the inhibitory effects of vasoinhibin on angiogenesis and vascular permeability [drawing 1]” (The Journal of Biological Chemistry, 2025)
